Counter-ions that a name gives are not always drawn.
tested on: P. Falciparum NF54; experiment: Plasmodium falciparum in vitro assay ([3H]-hypoxanthine incorporation); format: cell-based; conditions: Plasmodium falciparum, Erythrocyte, P. Falciparum NF54, erythrocytic stages in human red blood cells, 50% human serum
Procedure: In Vitro Antimalarial Activity: Plasmodium falciparum In Vitro Assay: In vitro activity against erythrocytic stages of P. Falciparum in human red blood cells is determined using a [^3H]-hypoxanthine incorporation assay. One strain sensitive to all drugs (P. […] After 48 hours, [^3H]-hypoxanthine (0.5 μCi) is added to each well of a plate. The plates are incubated for a further 24 hours under the same conditions then harvested with a Betaplate cell harvester (Wallac) and washed with distilled water. The dried filters are inserted into a plastic foil with 10 mL of scintillation fluid and counted in a Betaplate liquid scintillation counter. IC50 values are calculated from sigmoidal inhibition curves using Microsoft Excel.

| Compound | IC50 |
| --- | --- |
| Cc1cc(Nc2ccc(CN(CCCN(C)C)C(=O)/C=C/c3ccc(Cl)cc3)cc2)ccn1 [Example 167, (E)-3-(4-Chloro-phenyl)-N-(3-dimethylamino-propyl)-N-[4-(2-methyl-pyridin-4-ylamino)-benzyl]-acrylamide] | 110 nM |
| O=C(/C=C/c1ccc(C(F)(F)F)cc1)N(Cc1ccc(-c2ncccn2)cc1)C1CCN(C2CCCC2)CC1 [Example 203, (E)-N-(1-Cyclopentyl-piperidin-4-yl)-N-(4-pyrimidin-2-yl-benzyl)-3-(4-trifluoromethyl-phenyl)-acrylamide] | 400 nM |
| Cc1ccc(/C=C/C(=O)N(Cc2ccc(N(C)c3ccncc3)cc2)C2CCN(Cc3ccccc3)CC2)cc1 [Example 158, (E)-N-(1-Benzyl-piperidin-4-yl)-N-[4-(methyl-pyridin-4-yl-amino)-benzyl]-3-p-tolyl-acrylamide] | 190 nM |
| CN1CCC(N(C)c2ccc(CN(C(=O)/C=C/c3ccc(C(F)(F)F)cc3)C3CCN(Cc4ccccc4)CC3)cc2)CC1 [Example 177, (E)-N-(1-Benzyl-piperidin-4-yl)-N-{4-[methyl-(1-methyl-piperidin-4-yl)-amino]-benzyl}-3-(4-trifluoromethyl-phenyl)-acrylamide] | 238 nM |
| Cc1cc(Nc2ccc(CN(C(=O)/C=C/c3ccc(C(F)(F)F)cc3)C3CCN(Cc4ncc5ccccn45)CC3)cc2)ccn1 [Example 46, (E)-N-(1-Imidazo[1,5-a]pyridin-3-ylmethyl-piperidin-4-yl)-N-[4-(2-methyl-pyridin-4-ylamino)-benzyl]-3-(4-trifluoromethyl-phenyl)-acrylamide] | 165 nM |
| Cc1cc(N(C)c2cccc(CN(C(=O)/C=C/c3ccc(C(F)(F)F)cc3)C3CCN(C(C)C)CC3)n2)ccn1 [Example 128, (E)-N-(1-Isopropyl-piperidin-4-yl)-N-{6-[methyl-(2-methyl-pyridin-4-yl)-amino]-pyridin-2-ylmethyl}-3-(4-trifluoromethyl-phenyl)-acrylamide formate] | 302 nM |
| Cc1nccc(Nc2ccc(CN(C(=O)/C=C/c3ccc(C(F)(F)F)cc3)C3CCN(C4CCCC4)CC3)cn2)n1 [Example 108, (E)-N-(1-Cyclopentyl-piperidin-4-yl)-N-[6-(2-methyl-pyrimidin-4-ylamino)-pyridin-3-ylmethyl]-3-(4-trifluoromethyl-phenyl)-acrylamide] | 430 nM |
| CC(C)N1CCC(N(Cc2cncc(Nc3ccncc3F)c2)C(=O)/C=C/c2ccc(C(F)(F)F)cc2)CC1 [Example 138, (E)-N-[5-(3-Fluoro-pyridin-4-ylamino)-pyridin-3-ylmethyl]-N-(1-isopropyl-piperidin-4-yl)-3-(4-trifluoromethyl-phenyl)-acrylamide formate] | 344 nM |
| COc1cccc(/C=C/C(=O)N(Cc2ccc(N(C)c3ccncc3)cc2)C2CCN(Cc3ccccc3)CC2)c1 [Example 150, (E)-N-(1-Benzyl-piperidin-4-yl)-3-(3-methoxy-phenyl)-N-[4-(methyl-pyridin-4-yl-amino)-benzyl]-acrylamide] | 293 nM |
| CN(c1ccncc1)c1ccc(CN(C(=O)/C=C/c2ccc(C(F)(F)F)cc2)[C@H]2CCCN(C3CCCC3)C2)cc1 [Example 58, (S,E)-N-(1-cyclopentylpiperidin-3-yl)-N-(4-(methyl(pyridin-4-yl)amino)benzyl)-3-(4-(trifluoromethyl)phenyl)acrylamide] | 149 nM |
| Cc1ncc(-c2ccc(CN(C(=O)/C=C/c3ccc(C(F)(F)F)cc3)C3CCN(C4CCCC4)CC3)cc2)s1 [Example 201, (E)-N-(1-Cyclopentyl-piperidin-4-yl)-N-[4-(2-methyl-thiazol-5-yl)-benzyl]-3-(4-trifluoromethyl-phenyl)-acrylamide] | 357 nM |

The next molecules have a lower IC50 than those just listed; values first:

| IC50 | Compound |
| --- | --- |
| 28 nM | Cc1cc(Nc2ccc(CN(C(=O)/C=C/c3ccc(C(F)(F)F)cc3)C3CCN(C4CCCC4)CC3)cc2)cc(C)n1 [Example 87, (E)-N-(1-Cyclopentyl-piperidin-4-yl)-N-[4-(2,6-dimethyl-pyridin-4-ylamino)-benzyl]-3-(4-trifluoromethyl-phenyl)-acrylamide] |
| 83 nM | CN1CCC(N2CCC(N(Cc3ccc(Nc4ccncc4)cc3)C(=O)/C=C/c3ccc(OC(F)(F)F)cc3)CC2)CC1 [Example 118, (E)-N-(1′-Methyl-[1,4′]bipiperidinyl-4-yl)-N-[4-(pyridin-4-ylamino)-benzyl]-3-(4-trifluoromethoxy-phenyl)-acrylamide] |
| 36 nM | CN1CCC(N2CCC(N(Cc3ccc(N(C)c4ccncc4)cc3)C(=O)/C=C/c3ccc(OC(F)F)cc3)CC2)CC1 [Example 181, (E)-3-(4-Difluoromethoxy-phenyl)-N-(1′-methyl-[1,4′]bipiperidinyl-4-yl)-N-[4-(methyl-pyridin-4-yl-amino)-benzyl]-acrylamide] |
| 11 nM | CN1CCC(N2CCC[C@@H](N(Cc3ccc(N(C)c4ccncc4)cc3)C(=O)/C=C/c3ccc(C(F)(F)F)cc3)C2)CC1 [Example 56, (R,E)-N-(4-(methyl(pyridin-4-yl)amino)benzyl)-N-(1′-methyl-[1,4′-bipiperidin]-3-yl)-3-(4-(trifluoromethyl)phenyl)acrylamide] |
| 42 nM | COCC(C)N1CCC(N(Cc2ccc(Nc3ccnc(C)c3)cc2)C(=O)/C=C/c2ccc(C(F)(F)F)cc2)CC1 (racemic) [Example 84, (±)-(E)-N-[1-(2-Methoxy-1-methyl-ethyl)-piperidin-4-yl]-N-[4-(2-methyl-pyridin-4-ylamino)-benzyl]-3-(4-trifluoromethyl-phenyl)-acrylamide] |
| 11 nM | CN(c1ccncc1)c1ccc(CN(C(=O)/C=C/c2ccc(C(F)(F)F)cc2)C2CCN(C3CCCC3)CC2)cc1 [Example 5, (E)-N-(1-Cyclopentyl-piperidin-4-yl)-N-[4-(methyl-pyridin-4-yl-amino)-benzyl]-3-(4-trifluoromethyl-phenyl)-acrylamide] |
| 85 nM | CC(C)CCN1CCCC(N(Cc2ccc(N(C)c3ccncc3)cc2)C(=O)/C=C/c2ccc(C(F)(F)F)cc2)CC1 (racemic) [Example 63, (±)-(E)-N-(1-isopentylazepan-4-yl)-N-(4-(methyl(pyridin-4-yl)amino)benzyl)-3-(4-(trifluoromethyl)phenyl)acrylamide] |
| 82 nM | CC(C)CCN1CCC[C@H](N(Cc2ccc(N(C)c3ccncc3)cc2)C(=O)/C=C/c2ccc(C(F)(F)F)cc2)C1 [Example 61, (S,E)-N-(1-isopentylpiperidin-3-yl)-N-(4-(methyl(pyridin-4-yl)amino)benzyl)-3-(4-(trifluoromethyl)phenyl)acrylamide] |
| 81 nM | CN(c1ccncc1)c1ccc(CN(C(=O)/C=C/c2ccc(C(F)(F)F)cc2)C2CN(C3CCCC3)C2)cc1 [Example 102, (E)-N-(1-Cyclopentyl-azetidin-3-yl)-N-[4-(methyl-pyridin-4-yl-amino)-benzyl]-3-(4-trifluoromethyl-phenyl)-acrylamide] |
| 41 nM | CC(C)CCN1CCC2(CCC(N(Cc3ccc(N(C)c4ccncc4)cc3)C(=O)/C=C/c3ccc(C(F)(F)F)cc3)CC2)CC1 [Example 69, (E)-N-(3-isopentyl-3-azaspiro[5.5]undecan-9-yl)-N-(4-(methyl(pyridin-4-yl)amino)benzyl)-3-(4-(trifluoromethyl)phenyl)acrylamide] |

Reference: patent US9637473B2, “Acrylamide derivatives as antimalarial agents” (priority 2013, dated 2017)
